# Source: patent US8058243B2, “Method for treating a brain cancer with ifenprodil” (HSC Research and Development Limited Partnership, priority 2006, dated 2011)
# Where a name gives a salt, the structure may show the parent alone. Read-outs that look alike come from different tables or passages of the source.
# System: murine neural precursor cells (neurosphere cultures)
# Experiment: HTS of LOPAC library against secondary neurosphere cultures, MTT proliferation assay at 3 μM, day 7 (z score, P value)
# Format: cell-based, mouse
# [1] = LOPAC primary screen, neurosphere MTT proliferation, 3 μM, day 7
# [2] = yes/no: significantly inhibited neurosphere proliferation (P<0.01) in primary screen
# [3] = yes/no: significantly inhibited neurosphere proliferation in primary screen
# [4] = primary LOPAC screen, 3 μM, MTT, neurosphere proliferation
# [5] = yes/no: significantly inhibited neurosphere proliferation in the primary screen
# [6] = LOPAC library screen, 3 μM, MTT, neurosphere cultures
# [7] = LOPAC screen, neurosphere MTT proliferation, 3 μM, day 7
# [8] = yes/no: significantly inhibited neurosphere proliferation (P<0.01) in the primary screen
# [9] = LOPAC library screen at 3 μM, secondary neurosphere cultures, MTT
# [10] = yes = significantly inhibited neurosphere proliferation (P<0.01) in the primary screen
# [11] = LOPAC library screen, 3 μM, MTT, secondary neurosphere cultures, day 7
smiles,measurement,setting,value
CC(=N)NCCC[C@H](N)C(=O)O.Cl [L-N5-(1-Iminoethyl)ornithine hydrochloride],Z Score,,−0.9339
same,Z score,[1],−0.934
same,Activity,[2],no
Cl.NCCc1c[nH]c2ccccc12 [Tryptamine hydrochloride],Z Score,,1.245
same,Z score,[1],1.245
same,Activity,[3],no
Cc1cccc(C)c1N=C1NCCCS1 [Xylazine hydrochloride],Z Score,,0.3755
same,Z score,[4],0.375
same,Activity,[5],no
C[C@H]1C[C@H]2[C@@H]3CCC4=CC(=O)C=C[C@]4(C)[C@@]3(F)[C@@H](O)C[C@]2(C)[C@@]1(O)C(=O)CO [Betamethasone],Z Score,[6],0.8811
same,Z score,[7],0.881
NCCC(=O)NCCc1c[nH]cn1 [Carcinine dihydrochloride],Z Score,"168 h, 3 µM",−1.023
same,Z score,"168 h, 3 µM",−1.023
same,Activity,[5],no
Br.CCCN(CCC)C1CCc2ccc(O)cc2C1 (racemic) [(±)-7-Hydroxy-DPAT hydrobromide],Z score,[1],−11.102
same,Activity,[8],yes
CC(N)=NCc1cccc(CN)c1.Cl.Cl [1400W dihydrochloride],Z Score,,−0.2749
same,Z score,[4],−0.275
same,Activity,[5],no
CC(=O)SCC[N+](C)(C)C.[Cl-] [Acetyithiocholine chloride],Z Score,,0.004223
O=c1c2ccccc2[se]n1-c1ccccc1 [Ebselen],Z Score,[9],−0.2515
same,Z score,[1],−0.251
Br.CO[C@H]1CC=C2CCN3CCC4=C(CC(=O)OC4)[C@]23C1 [Dihydro-beta-erythroidine hydrobromide],Z Score,,−1.788
same,Z score,[1],−1.788
same,Activity,[2],no
CC(C)(C=O)Cc1cc(C(C)(C)C)c(O)c(C(C)(C)C)c1 [CGP-13501],Z Score,,−1.096
same,Z score,[4],−1.096
same,Activity,[5],no
Cl.NCCc1ccc(O)cc1 [4-Hydroxyphenethylamine hydrochloride],Z Score,,1.03
same,Z score,[4],1.030
same,Activity,[5],no
CC1=C(CC(=O)O)c2cc(F)ccc2/C1=C\c1ccc([S+](C)[O-])cc1 (stereo not shown) [Sulindac],Activity,,no
same,Z Score,[9],−0.1942
same,Z score,[1],−0.194
CNCC[C@H](Oc1ccc(C(F)(F)F)cc1)c1ccccc1.Cl [S-(+)-Fluoxetine hydrochloride],Z Score,[9],−0.8088
same,Z score,[1],−0.809
same,Activity,[2],no
OC(CN1CCN(c2cccc(Cl)c2)CC1)C(c1ccccc1)c1ccccc1 (stereo not shown) [BRL 15572],Z Score,,0.3117
same,Z score,[1],0.312
same,Activity,[8],no
"CC(=O)[C@H]1CC[C@H]2[C@@H]3CC[C@H]4C[C@H](O)CC[C@]4(C)[C@H]3C(=O)C[C@]12C [5alpha-Pregnan-3alpha-ol-11,20-dione]",Z Score,,−0.8078
same,Z score,[1],−0.808
"CCCn1c(=O)c2[nH]c(C3CCCC3)nc2n(CCC)c1=O [8-Cyclopentyl-1,3-dipropylxanthine]",Z Score,"168 h, 3 µM",−0.07021
same,Z score,"168 h, 3 µM",−0.070
same,Activity,[2],no
NC(=O)CN1CCCC1=O [Piracetam],Z Score,[9],−0.3758
same,Z score,[1],−0.376
same,Activity,[10],no
CC(=O)O[C@]1(C(C)=O)CC[C@H]2[C@@H]3C=C(Cl)C4=CC(=O)[C@@H]5C[C@@H]5[C@]4(C)[C@H]3CC[C@@]21C [Cyproterone acetate],Z Score,[11],−1.803
same,Z score,[7],−1.803
same,Activity,[2],no
COc1ccc2c(c1)CC[C@@H]1[C@@H]2CC[C@]2(C)[C@@H](NCCCCCCN3C(=O)C=CC3=O)CC[C@@H]12 [U-73122],Activity,[5],no
C[C@]12CCC(=O)C=C1CC[C@@H]1[C@@H]2[C@@H](O)C[C@@]2(C)[C@H]1CC[C@]2(O)C(=O)COC(=O)CCC(=O)[O-].[Na+] [Hydrocortisone 21-hemisuccinate sodium],Z Score,[6],−0.04033
same,Z score,[1],−0.040
same,Activity,[2],no
"Cl.Nc1c2c(nc3ccccc13)CCCC2 [9-Amino-1,2,3,4-tetrahydroacridine hydrochloride]",Activity,,no
same,Z Score,,−1.021
same,Z score,,−1.021
NS(=O)(=O)c1cc2c(cc1Cl)NC(C1CC3C=CC1C3)NS2(=O)=O (stereo not shown) [Cyclothiazide],Z Score,[9],−0.907
same,Z score,[7],−0.907
same,Activity,[2],no
"CN(C)C(=N)NCCC[C@H](N)C(=O)O.Cl [N′,N′-Dimethylarginine hydrochloride]",Z score,[7],−1.373
same,Activity,[2],no
CCN1CCCC1CNC(=O)c1cc(S(N)(=O)=O)ccc1OC (stereo not shown) [(B1)-Sulpiride],Z Score,,−0.2841
O=C(c1ccc(OCCN2CCCCC2)cc1)c1c(-c2ccc(O)cc2)sc2cc(O)ccc12 [Raloxifene hydrochloride],Z Score,[11],−9.222
same,Z score,[1],−9.222
same,Activity,[10],yes
C[N+](C)(C)CCCCCC[N+](C)(C)C.[Cl-].[Cl-] [Hexamethonium dichloride],Z Score,,−10.63
same,Z score,[1],−10.634
same,Activity,[8],yes
"CC(N)C(O)c1ccc(O)c(O)c1 (single isomer, unassigned; (-)) [(−)-alpha-Methylnorepinephrine]",Z Score,,1.193
same,Z score,[7],1.193
same,Activity,[2],no
Cl.Cl.Cn1cnc(CCN)c1 [1-Methylbistamine dihydrochloride],Z Score,,0.3068
COc1cc(OC)cc(C(CNc2ncnc3c2ncn3[C@@H]2O[C@H](CO)[C@@H](O)[C@H]2O)c2ccccc2C)c1 (stereo partly shown) [DPMA],Z Score,,0.03628
same,Z score,[7],0.036
same,Activity,[2],no
"CC(N)(Cc1ccc(O)c(O)c1)C(=O)O (racemic) [(±)-3-(3,4-dihydroxyphenyl)-2-methyl-DL-alanine]",Z score,"168 h, 3 µM",−1.894
same,Activity,[10],no
OCc1ccc(-c2nn(Cc3ccccc3)c3ccccc23)o1 [YC-1],Z Score,,0.4335
same,Z score,[4],0.433
same,Activity,[5],no
CCCNC(C)C(=O)Nc1ccccc1C (stereo not shown) [Prilocaine hydrochloride],Z Score,"LOPAC library screen at 3 μM, MTT, secondary neurosphere cultures, screened in singlets",1.509
same,Z score,[1],1.509
same,Activity,[3],no
C[C@]12C=CC(=O)C=C1CC[C@@H]1C2=CC[C@]2(C)[C@@H](C(=O)CN3CCN(c4cc(N5CCCC5)nc(N5CCCC5)n4)CC3)CC[C@@H]12.O=C(O)/C=C\C(=O)O [U-74389G maleate],Z Score,[11],−8.942
same,Z score,[1],−8.942
same,Activity,[8],yes
Cc1ccc(O)c(N=Nc2ccccc2)n1 [SIB 1757],Z Score,,−1.752
same,Z score,[1],−1.752
same,Activity,[3],no
"CC(=O)N[C@@H](Cc1c[nH]c2ccccc12)C(=O)OCc1cc(C(F)(F)F)cc(C(F)(F)F)c1 [L-732,138]",Z Score,,0.5027
same,Z score,[4],0.503
same,Activity,[5],no
"Cc1cc(N)c2ccccc2[n+]1CCCCCCCCCCCCCC[n+]1c(C)cc(N)c2ccccc21 [Dequalinium analog, C-14 linker]",Z Score,[11],−11.27
same,Z score,[1],−11.274
same,Activity,[8],yes
NC(=S)c1ccc[n+]([C@@H]2O[C@@H](COP(=O)([O-])OP(=O)(O)OC[C@H]3O[C@@H](n4cnc5c(N)ncnc54)C(OP(=O)([O-])O)[C@H]3O)C(O)C2O)c1.[Na+] (stereo partly shown) [Thio-NADP sodium],Z Score,,0.3661
same,Z score,[4],0.366
same,Activity,[5],no
CNC[C@H](O)c1cccc(O)c1 [Phenylephrine hydrochloride],Activity,,no
same,Z Score,[11],−1.257
same,Z score,[1],−1.257
COc1cc2c(cc1OC)-c1c/c(=N\c3c(C)cc(C)cc3C)n(C)c(=O)n1CC2 [Trequinsin hydrochloride],Z Score,[9],−0.9709
same,Z score,[4],−0.971
same,Activity,[5],no
NS(=O)(=O)c1cc2c(cc1Cl)NCNS2(=O)=O [Hydrochlorothiazide],Z Score,[9],−0.212
same,Z score,[1],−0.212
same,Activity,[2],no
Nc1nc(OCc2ccccc2)c2nc[nH]c2n1 [O6-benzylguanine],Z Score,[9],−1.177
same,Z score,[4],−1.177
same,Activity,[5],no
O=C1c2c(O)cc(O)cc2OC(c2ccc(O)c(O)c2)C1O (stereo not shown) [(B1)-Taxifolin],Z Score,,1.321
"O=C(O)[C@H]1CCCN[C@H]1C(=O)O (racemic) [(±)-cis-Piperidine-2,3-dicarboxylic acid]",Z score,"168 h, 3 µM",0.155
same,Activity,[3],no
CN(C)CCCN1c2ccccc2CCc2ccccc21 [Imipramine hydrochloride],Activity,,no
same,Z Score,[9],−0.5272
same,Z score,[1],−0.527
CC(N)(Cc1ccc(O)c(O)c1)C(=O)O (racemic),Z Score,,−1.894
C[N+]1(C)[C@@H]2CC[C@H]1C[C@@H](OC(=O)C(CO)c1ccccc1)C2 (stereo partly shown) [Atropine methyl bromide],Z Score,[9],−0.8716
same,Z score,[1],−0.872
same,Activity,[10],no
Cl.c1ccc(CN(CC2=NCCN2)c2ccccc2)cc1 [Antozoline hydrochloride],Z Score,,0.4854
same,Z score,[4],0.485
same,Activity,[5],no
Nc1nc(SCc2ccc([N+](=O)[O-])cc2)c2ncn([C@@H]3O[C@H](CO)[C@@H](O)[C@H]3O)c2n1 [S-(4-Nitrobenzyl)-6-thioguanosine],Z Score,[6],0.1017
same,Z score,[1],0.102
same,Activity,[3],no
"O=Nc1ccc2oc(=O)ccc2c1 [6-Nitroso-1,2-benzopyrone]",Z score,[1],0.011
same,Activity,[10],no
CC(=O)N1CCN(c2ccc(OCC3COC(Cn4ccnc4)(c4ccc(Cl)cc4Cl)O3)cc2)CC1 (stereo not shown) [Ketoconazole],Activity,,no
same,Z Score,"168 h, 3 µM",0.586
same,Z score,"168 h, 3 µM",0.586
Oc1cc2c(cc1O)CN(C(=S)NCCc1ccc(Cl)cc1)CCC2 [Capsazepine],Z Score,[6],1.26
same,Z score,[7],1.260
same,Activity,[2],no
